Experimental data as given in patent US9247744B2, “Ternary pesticidal mixtures” (BASF SE, priority 2006, dated 2016).

Key:
Type in all cases: in vivo
[1] = system: vetch aphid (Megoura viciae); assay: control of vetch aphid on broad bean leaf disks, 24-well microtiter plates; conditions: sprayed on leaf disks, mortality and fecundity after 5 days
Method: (§1) The analysis of synergism or antagonism between the mixtures or compositions was determined using Colby's equation.
For evaluating control of vetch aphid (Megoura viciae) through contact or systemic means the test unit consisted of 24-well-microtiter plates containing broad bean leaf disks.
The compounds or mixtures were formulated using a solution containing 75% water and 25% DMSO. Different concentrations of formulated compounds or mixtures were sprayed onto the leaf disks at 2.5 μl, using a custom built micro atomizer, at two replications.
(§2) For experimental mixtures in these tests identical volumes of both mixing partners at the desired concentrations respectively, were mixed together.
After application, the leaf disks were air-dried and 5-8 adult aphids placed on the leaf disks inside the microtiter plate wells. The aphids were then allowed to suck on the treated leaf disks and incubated at 23±1° C., 50±5% RH for 5 days. Aphid mortality and fecundity was then visually assessed.
In this test the compound 1-2, and N-(3′,4′-dichloro-5-fluorobiphenyl-2-yl)-3-difluoromethyl-1-methylpyrazole-4-carboxamide (compound 2.1) and 5-chloro-7-(4-methyl-piperidin-1-yl)-6-(2,4,6-trifluorophenyl)-[1,2,4]triazolo[1,5-a]pyrimidine (compound 2.2) were used.

[2] = system: boll weevil (Anthonomus grandis); assay: control of boll weevil, insect diet with eggs, 24-well microtiter plates; conditions: sprayed on insect diet, egg and larval mortality after 5 days
Method: as §1
For evaluating control of boll weevil (Anthonomus grandis) the test unit consisted of 24-well-microtiter plates containing an insect diet and 20-30 A. grandis eggs.
(§3) The compounds or mixtures were formulated using a solution containing 75% water and 25% DMSO. Different concentrations of formulated compounds or mixtures were sprayed onto the insect diet at 20 μl, using a custom built micro atomizer, at two replications.
as §2
After application, microtiter plates were incubated at 23±1° C., 50±5% RH for 5 days. Egg and larval mortality was then visually assessed.
In this test the compound 1-2, and prochloraz, pyraclostrobin, N-[2-(1,1,2,3,3,3-hexafluoropropoxy)-phenyl]-3-difluoromethyl-1-methyl-1H-pyrazole-4-carboxamide (compound 3.1), and N-(3′,4′,5′-trifluorobiphenyl-2-yl)-1-methyl-3-difluoromethyl-1H-pyrazole-4-carboxamide (compound 3.2), resp., were used.

[3] = system: tobacco budworm (Heliothis virescens); assay: control of tobacco budworm, insect diet with eggs, 96-well microtiter plates; conditions: sprayed on insect diet, egg and larval mortality after 5 days
Method: as §1
as §3, with “For evaluating control of tobacco budworm (Heliothis virescens) the test unit consisted of 96-well-microtiter plates containing an insect diet and 15-25 H. virescens eggs. The” for “The”, “10” for “20”
as §2
After application, microtiter plates were incubated at 28±1° C., 80±5% RH for 5 days. Egg and larval mortality was then visually assessed.
In this test the compound I-2, and prochloraz, and pyraclostrobin, resp., were used.

[4] = system: green peach aphid (Myzus persicae); assay: control of green peach aphid through systemic means, artificial diet under membrane; conditions: pipetted into aphid diet, mortality and fecundity after 3 days
Method: as §1
For evaluating control of green peach aphid (Myzus persicae) through systemic means the test unit consisted of 96-well-microtiter plates containing liquid artificial diet under an artificial membrane.
The compounds or mixtures were formulated using a solution containing 75% water and 25% DMSO. Different concentrations of formulated compounds or mixtures were pipetted into the aphid diet, using a custom built pipetter, at two replications.
as §2
After application, 5-8 adult aphids were placed on the artificial membrane inside the microtiter plate wells. The aphids were then allowed to suck on the treated aphid diet and incubated at 23±1° C., 50±5% RH for 3 days. Aphid mortality and fecundity was then visually assessed.
In this test the compound 1-2, and orysastrobin, and 5-chloro-7-(4-methylpiperidin-1-yl)-6-(2,4,6-trifluorophenyl)-[1,2,4]triazolo[1,5-a]pyrimidine (compound 2.2), and N-[2-(1,1,2,3,3,3-hexafluoropropoxy)-phenyl]-3-difluoromethyl-1-methyl-1H-pyrazole-4-carboxamide (compound 3.1), were used.

**Q.** What does the source list for CNC(=O)c1cc(C#N)cc(C)c1NC(=O)c1cc(Br)nn1-c1ncccc1Cl [I-2]?
**A.** Average Control % ([1]; 0.5 ppm): 0%; Average Control % ([1]; 2.5 ppm): 0%; Average Control % ([2]; 0.5 ppm): 0%; Average Control % ([3]; 0.5 ppm): 0%; Average Control % ([3]; 2.5 ppm): 37.5%; Average Control % ([4]; 0.5 ppm): 0%

**Q.** Which “Average Control %” value ([4]; 40 ppm) does the source give for CNC(=O)/C(=N/OC)c1ccccc1CO/N=C(C)/C(=N/OC)C(/C)=N/OC [orysastrobin, (2E)-2-(methoxyimino)-2-{2-[(3E,5E,6E)-5-(methoxyimino)-4,6-dimethyl-2,8-dioxa-3,7-diazanona-3,6-dien-1-yl]phenyl}-N-methylacetamide] here?
**A.** The value was 0%.

**Q.** Cn1cc(C(=O)Nc2ccccc2-c2cc(F)c(F)c(F)c2)c(C(F)F)n1 [compound 3.2, N-(3′,4′,5′-trifluorobiphenyl-2-yl)-1-methyl-3-difluoromethyl-1H-pyrazole-4-carboxamide] was tested. Which “Average Control %” value ([2]; 200 ppm) did it give?
**A.** The value was 0%.

**Q.** Which results are given for COC(=O)N(OC)c1ccccc1COc1ccn(-c2ccc(Cl)cc2)n1 [pyraclostrobin, methyl N-{2-[1-(4-chlorophenyl)-1/pyrazol-3-yloxymethyl]phenyl}(N-methoxy)carbamate]?
**A.** Average Control % ([2]; 40 ppm): 0%; Average Control % ([3]; 200 ppm): 0%; Average Control % ([4]; 8 ppm): 0%

**Q.** How did the “Average Control %” value ([1]; 1000 ppm) turn out when Cn1cc(C(=O)Nc2ccc(F)cc2-c2ccc(Cl)c(Cl)c2)c(C(F)F)n1 [compound 2.1, N-(3′,4′-dichloro-5-fluorobiphenyl-2-yl)-3-difluoromethyl-1-methylpyrazole-4-carboxamide] was run?
**A.** The value was 0%.
